From patent US6380248B1, “Metal-thiols as immunomodulating agents” (Winthrop University Hospital, priority 1998, dated 2002)
Where two headings read alike, the source gives them in different places.

What was measured:
bacteria = assay: Antibacterial activity of bismuth-thiols; format: cell-based; details: for antibacterial / antimicrobial activity in words: comparison between bismuth-thiols
mice [1] = assay: Toxicity / lethality to mice; details: mouse, in vivo
[2] = Stability of the bismuth-thiol compound; format: physicochemical; details: compared to bismuth:dimercaprol
mice [3] = details: according to MSDS sheets from Aldrich Chemical Company; cited from earlier work
IL-1α = assay: Serum cytokine levels in CLP mice treated with BisEDT; format: in vivo; details: BisEDT 1:2 (Bismuth 20 μg/kg BW) tail vein 5 h after CLP, sacrificed 18 h after injection
IL-10 [4] = format: in vivo, mice
[5] = test system: macrophages/monocytes from CLP mice; format: in vivo
TNFα = assay: Serum cytokine levels in CLP mice treated with BisEDT; format: in vivo; details: BisEDT 1:2 (Bismuth 20 μg/kg BW) tail vein 5 h after CLP, sacrificed 18 h after injection, * p<0.05
TGFβ1 = assay: as above; format: in vivo; details: BisEDT 1:2 (Bismuth 20 μg/kg BW) tail vein 5 h after CLP, sacrificed 18 h after injection
[6] = test system: CLP mice (sepsis induced by cecal ligation and perforation); assay: Survival of septic mice (cecal ligation and perforation, CLP) treated with BisEDT; format: in vivo
Experimental: In the absence of any treatment, mortality rate is greater than 90% within 18-72 hours.
The object was to determine if Bismuth-ethanedithiol (BisEDT) in a molar ratio of 1:2, would protect CLP mice. Mortality rate of greater than 90% is observed within 18-72 hours in this model. A dose response study was performed to determine an optimal dose of BisEDT. […] Data were analyzed using Chi-Square and Krumkal Walkis tests. The data are presented below as average ±SEM. Data compared to control (dose 0) were considered significant (*) at p<0.05.

[7] = test system: pro- and anti-inflammatory cytokines; assay: Polymicrobial sepsis induced up-regulation of cytokines in mice; details: mouse, in vivo
IL-10 [8] = assay: Serum cytokine levels in CLP mice treated with BisEDT; format: in vivo; details: BisEDT 1:2 (Bismuth 20 μg/kg BW) tail vein 5 h after CLP, sacrificed 18 h after injection
[9] = repeat study, Injection Once a Day, dose 2 ug/kg BW, * p<0.05
[10] = repeat study, Injection Once a Day, dose 200 ug/kg BW
[11] = repeat study, Injection Twice a Day, dose 2 ug/kg BW, * p<0.05
[12] = repeat study, Injection Twice a Day, dose 200 ug/kg BW

Bismuth:propanedithiol (1,3-propanedithiol)
antibacterial / antimicrobial activity in words (bacteria): works quite well, but not as well as the vicinal dithiols

CC(O)C(C)S (centres unmarked) [3-mercapto-2-butanol]
amount of thiol required relative to dimercaprol to achieve similar inhibitory activity (bacteria; in combination with bismuth): Approximately 3 times

dimercapto-succinic acid [reference compound]
antibacterial synergy of the thiol with bismuth (bacteria): largely abolished synergy with bismuth
antibacterial synergy of the thiol with bismuth (bacteria; listed as DMSA): did not show antibacterial synergy

SCCCCS.[Bi] [Bismuth-1,4-butanedithiol]
less antibacterial activity (compared with vicinal dithiols Bismuth-2,3-BDT / bismuth:ethanedithiol) (bacteria): ~100 fold

O=S(=O)(O)CC(S)CS (centres unmarked) [dimercaptopropane-1-sulfonic acid, reference compound]
antibacterial synergy of the thiol with bismuth (bacteria): did not show antibacterial synergy

bismuth:2-mercaptoethylamine
decrease in activity compared with bismuth:β-mercaptoethanol (bacteria; antibacterial activity): 5 fold

Bismuth-2,3-BDT (2,3-butanedithiol)
antibacterial / antimicrobial activity in words (bacteria): as good as bismuth:ethanedithiol

Bismuth-ethanedithiol [BisEDT]
toxicity compared to bismuth:dimercaprol (mice [1]): no more toxic
stability [2]: more stable compound at all molar ratios and pHs
lethality to mice (mice [3]): very similar to that of dimercaprol
antibacterial / antimicrobial activity in words (bacteria): stronger antimicrobial agent than bismuth:dimercaprol
Serum IL-1α level (IL-1α): 10.5 ± 1.1 pg/mL
IL-10 production in vitro by splenic macrophages (IL-10 [4]; from CLP mice treated with BisEDT, unstimulated): do not produce IL-10 in vitro as much as the macrophages from BisEDT untreated CLP animals
IL-10 release by splenic macrophages, stimulated (IL-10 [4]; mouse, in vivo): did not significantly up-regulate the IL-10 release
amounts of superoxide, H2O2 and NO2- produced by macrophages/monocytes, unstimulated ([5]; from BisEDT-treated CLP mice (Bismuth 20 μg/kg BW), without in vitro stimulation): in between that produced by the control and untreated CLP mice but not significantly different from either of these groups
release of superoxide, H2O2 and NO2- by macrophages/monocytes, stimulated ([5]; mouse, in vivo): significantly increased
Serum TNFα level (TNFα): 13.7 ± 2.9* pg/ml
Serum TGFβ1 level (TGFβ1): 24.8 ± 3.6 pg/mL
Survival ([6]; dose 2 ug/kg BW via tail vein once a day for three days, observed 8 days, average ±SEM, dose response study): 64 ± 43 h
Survival (%) ([6]; dose 2 ug/kg BW via tail vein once a day for three days, observed 8 days, dose response study): 20%
Survival (hrs.) ([6]; dose 20 ug/kg BW via tail vein once a day for three days, average ±SEM, dose response study, * p<0.05 vs dose 0): 110 ± 35* hrs.
Survival (%) ([6]; dose 20 ug/kg BW via tail vein once a day for three days, dose response study, * p<0.05 vs dose 0): 60* %
Survival ([6]; dose 200 ug/kg BW via tail vein once a day for three days, average ±SEM, dose response study): 75 ± 21 h
Survival (%) ([6]; dose 200 ug/kg BW via tail vein once a day for three days, dose response study): 40%
Survival ([6]; dose 2000 ug/kg BW via tail vein once a day for three days, average ±SEM, dose response study): 48 ± 24 h
Survival (%) ([6]; dose 2000 ug/kg BW via tail vein once a day for three days, dose response study): 20%
effect on survival ([6]; dose of 20 μg/kg body weight): significantly increase survival
effect of increase in dose frequency on survival ([6]; once daily to twice daily, P=0.73): did not increase survival
Survival (%) [6, 9]: 56* %
Survival (hrs.) [6, 9]: 109 ± 29* hrs.
Survival [6, 10]: 75 ± 21 h
Survival (%) [6, 10]: 40%
Survival (%) [6, 11]: 44* %
Survival (hrs.) [6, 11]: 103 ± 29* hrs.
Survival [6, 12]: 97 ± 40 h
Survival (%) [6, 12]: 40%
percentage survival, overall ([6]; treatment group versus 0% (control), summary of Example 1): 60%
survivability, overall ([6]; with treatment versus approximately 36 hours without treatment, summary of Example 1): 108 h
prevention of sepsis induced up-regulation of pro- and anti-inflammatory cytokines [7]: able to prevent the polymicrobial sepsis induced up-regulation of both pro- and anti-inflammatory cytokines
Serum IL-10 level (IL-10 [8]): 165 ± 69 pg/mL
